Results as given in patent US20040186066A1, “Method of treatment with nelfinavir” (AGOURON PHARMACEUTICALS, INC., priority 2003, published 2004).
Marks after values point to notes of the source that are not given here.

Assays:
[1] = Example 1: phase I crossover food-effect study, single-dose pharmacokinetics of nelfinavir 250 mg tablets (total kilocalories and fat); type: in vivo, human (normal healthy volunteers); details: for bioavailability of M8 higher relative to fasting, based on AUC(0-∞): M8 after 1250 mg nelfinavir
Method: A phase I, randomized, open-label crossover study to evaluate the impact of total kilocalories and fat content on single-dose pharmacokinetic parameters of the nelfinavir 250 mg tablet formulation in normal healthy volunteers was performed. Healthy volunteers entered the study and received the following treatment in random order at least 1 week apart: 1) 5×250 mg nelfinavir tablets, fasted 2) 5×250 mg nelfinavir tablets (breakfast meal 1, 125 Kcal/20% fat=low cal/low fat) 3) 5×250 mg nelfinavir tablets (breakfast meal 2, 500 Kcal/20% fat=medium cal/low fat) 4) 5×250 mg nelfinavir tablets (breakfast meal 3, 1000 Kcal/50% fat=high cal/high fat). Plasma concentrations of nelfinavir and its active hydroxy-t-butylamide metabolite (M8) were measured by validated high performance liquid chromatography (HPLC) methods. Pharmacokinetic parameters were determined from plasma concentration-time data using standard methods. Nelfinavir was administered as five 250-mg tablets with 240 mL of water. All subjects received a standardized snack the evening they were admitted to the in-patient facility. For the fasting evaluation, subjects were required to complete an overnight fast of at least 10 hours prior to dosing in the morning. For the fed pharmacokinetic evaluations, subjects were required to complete an overnight fast of at least 10 hours, prior to receiving the protocol-specific standardized breakfast meal (that is, Meal 1, Meal 2, or Meal 3). Subjects were given 30 minutes to complete their standardized breakfast meal. Dosing was performed in the morning, immediately following the subject's completion of the standardized breakfast meal and after the subject's pre-dose pharmacokinetic specimen had been collected. Subjects could not ingest water 1 hour prior to or 1 hour after dosing. A standardized lunch was given at least 4 hours after the morning dose and a standardized dinner was given at least 10 hours after the morning dose. For pharmacokinetic sampling, blood samples, 5 mL each, were collected into heparinized vacuum tubes (green top tubes) via an indwelling catheter or direct venipuncture. The actual time of each collection was recorded on the source document. The timing of each sample collection was as follows: predose and at 0.5, 1, 2, 3, 4, 6, 8, and 12 hours postdose on Days 1, 8,15, and 22. Pharmacokinetic parameter values were calculated using WinNonlin Pro Version 2.1. Individual nelfinavir plasma concentrations were used to predict steady-state plasma concentrations during BID administration with meals of various Kcal content. WinNonlin Pro Version 3.2 noncompartmental superposition was used for this simulation. Predicted steady-state Cmax and Cmin values were compared.

[2] = Example 2: phase 1 crossover 3×3 study, fixed kilocalorie meal at 20% and 50% fat, single-dose pharmacokinetics of nelfinavir 250 mg tablets; type: in vivo, human (normal, healthy volunteers)
Method: A study was conducted as a phase 1, randomized, open-label, crossover 3×3 study, designed to evaluate the impact of a fixed kilocalorie meal at 20% and 50% fat content on single-dose pharmacokinetic parameters of the nelfinavir 250 mg tablet formulation in normal, healthy volunteers. Subjects were dosed with 1250 mg of nelfinavir 3 times at one-week intervals and 24-hour PK profiles were collected following each of the doses. Each subject was assigned three meals with different fat contents prior to dosing (fasting, 500kcal with 20% fat, 500 kcal with 50% fat) using a Latin square design. Twenty-four subjects entered the study and twenty-two subjects completed it. Each subject received the following treatment in random order on Days 1, 8 and 15: 5×250 mg nelfinavir tablets with fasting; 5×250 mg nelfinavir tablets, with a meal comprising 500Kcal/20% fat; and 5×250 mg nelfinavir tablets with a meal having 500 Kcal/50% fat. The moderate calorie/low fat meal consisted of 500 Kcal with 20% fat (11.3 grams of fat). The moderate calorie/high fat meal consisted of 500 Kcal with 50% fat (27.8 grams of fat). Subjects were administered nelfinavir 1250-mg (five 250-mg tablets) on the morning of the pharmacokinetic evaluations. The nelfinavir terminal half-life (t½) in plasma is typically 3.5 to 5 hours. […] Subjects participated on an outpatient basis; however, subjects were admitted to the in-patient facility the evening prior to each PK evaluation and remained in the in-patient facility for approximately 16 hours post-dosing. The subjects returned the next morning (8 hours later) for their last 24 hr. pharmacokinetic blood draw. All pharmacokinetic evaluations were performed in the in-patient facility. Blood samples were collected and analyzed for plasma concentrations of nelfinavir and M8. For the fasting evaluation, subjects were required to complete an overnight fast of at least 10 hours prior to dosing in the morning. For the fed PK evaluations, subjects were required to complete an overnight fast of at least 10 hours, prior to receiving the protocol-specific standardized breakfast meal. Subjects were given 30 minutes to complete their standardized breakfast meal. Dosing was performed in the morning, immediately following the subject's completion of the standardized breakfast meal and after the subject's predose PK specimen had been collected. Subjects could not ingest water 1 hour prior to or 1 hour after dosing. A standardized lunch was given at least 4 hours after the morning dose and a standardized dinner was given at least 10 hours after the morning dose. Actual sampling times were used for all data evaluation. Mean Cmax and AUC values were calculated as the antilogs of least-squares mean log-transformed values (analogous to geometric means). Ratios and confidence intervals for Cmax and AUC values are also based on log-transformed values. Mean values for all other pharmacokinetic parameters are least-squares means. Ratios and confidence intervals for these parameters are based on untransformed values. Blood samples, 5 mL each, were collected as in Example 1. The timing of each sample collection was as follows: Predose and at 0.5, 1, 2, 3, 4, 6, 8, 12, 16 and 24 hours postdose on Days 1, 8, and 15. All blood samples were kept at […] (using either wet ice or cryoblock) until centrifugation. Blood samples were centrifuged within 1 hour of collection, at 3000 rpm (approximately 2619×g) for 15 minutes, to separate the plasma. The plasma samples were split evenly into 2 aliquots and stored in appropriately labeled polypropylene transport tubes. Plasma was stored frozen at […] or lower until analysis. Pharmacokinetic parameter values were calculated from plasma nelfinavir and M8 concentration-time data using standard noncompartmental pharmacokinetic methods as in Example 1. Plasma concentrations of nelfinavir and M8 were measured by validated high-performance liquid chromatography (HPLC) methods. […]

[3] = with increasing food intake; cited from earlier work
[4] = M8 after 1250-mg nelfinavir oral dose, fasting (reference)
[5] = M8 after 1250-mg nelfinavir with high calorie/high fat/high protein meal
[6] = M8 after 1250-mg nelfinavir with low calorie/low fat/low protein meal
[7] = M8 after 1250-mg nelfinavir with moderate calorie/low fat/moderate protein meal
[8] = high calorie/high fat/high protein meal vs fasting
[9] = low calorie/low fat/low protein meal vs fasting
[10] = moderate calorie/low fat/moderate protein meal vs fasting

SMILES: Cc1c(O)cccc1C(=O)N[C@@H](CSc1ccccc1)[C@H](O)CN1C[C@H]2CCCC[C@H]2C[C@H]1C(=O)NC(C)(C)CO [M8]
- M8 AUCinf/NFV AUCinf (%) ([1]; 1250 mg nelfinavir single oral dose, fasting): 26.5%
- bioavailability of M8 higher relative to fasting, based on AUC(0-∞) ([1]; high calorie meal (1000 Kcal)): 4.1 fold
- bioavailability of M8 higher relative to fasting, based on AUC(0-∞) ([1]; low calorie meal (125 Kcal)): 1.3 fold
- bioavailability of M8 higher relative to fasting, based on AUC(0-∞) ([1]; moderate calorie meal (500 Kcal)): 1.8 fold
- M8 AUC(0-tlqc), least-squares mean [1, 4]: 0.655^a μg · hr/mL
- M8 AUC(0-∞), least-squares mean [1, 4]: 2.81^c μg · hr/mL
- M8 t1/2, least-squares mean [1, 4]: 2.68^c hr
- M8 tmax, least-squares mean [1, 4]: 3.45^b hr
- M8 AUC(0-tlqc), least-squares mean [1, 5]: 7.58^g μg · hr/mL
- M8 AUC(0-∞), least-squares mean [1, 5]: 11.5^a μg · hr/mL
- M8 Cmax, least-squares mean [1, 5]: 1.28^g μg/mL
- M8 t1/2, least-squares mean [1, 5]: 3.90^a hr
- M8 tmax, least-squares mean [1, 5]: 5.01^a hr
- M8 AUC(0-tlqc), least-squares mean [1, 6]: 2.01^d μg · hr/mL
- M8 AUC(0-∞), least-squares mean [1, 6]: 3.66^f μg · hr/mL
- M8 Cmax, least-squares mean [1, 6]: 0.533^d μg/mL
- M8 t1/2, least-squares mean [1, 6]: 2.40^f hr
- M8 tmax, least-squares mean [1, 6]: 3.88^e hr
- M8 AUC(0-tlqc), least-squares mean [1, 7]: 3.46^a μg · hr/mL
- M8 AUC(0-∞), least-squares mean [1, 7]: 5.11^e μg · hr/mL
- M8 Cmax, least-squares mean [1, 7]: 0.693^a μg/mL
- M8 t1/2, least-squares mean [1, 7]: 2.96^e hr
- M8 tmax, least-squares mean [1, 7]: 4.49^a hr
- M8 Cmax, least-squares mean ([1]; M8 in plasma after 1250-mg nelfinavir oral dose, fasting (reference)): 0.228^a μg/mL
- M8 AUC/nelfinavir AUC ([1]; fed state): 15-21%
- M8 AUCinf/NFV AUCinf (%) ([1]; food intake 125 kcal/20% fat): 15.8%
- M8 AUCinf/NFV AUCinf (%) ([1]; food intake 500 kcal/20% fat): 15.3%
- M8 AUCinf/NFV AUCinf (%) ([1]; food intake 1000 kcal/50% fat): 20.8%
- M8 AUC(0-tlqc) ratio (100% × test/reference) [1, 8]: 1157%
- M8 AUC(0-∞) ratio (100% × test/reference) [1, 8]: 408%
- M8 Cmax ratio (100% × test/reference) [1, 8]: 562%
- M8 t1/2 ratio (100% × test/reference) [1, 8]: 145%
- M8 tmax ratio (100% × test/reference) [1, 8]: 145%
- M8 AUC(0-tlqc) ratio (100% × test/reference) [1, 9]: 343%
- M8 AUC(0-∞) ratio (100% × test/reference) [1, 9]: 130%
- M8 Cmax ratio (100% × test/reference) [1, 9]: 234%
- M8 t1/2 ratio (100% × test/reference) [1, 9]: 89.4%
- M8 tmax ratio (100% × test/reference) [1, 9]: 113%
- M8 AUC(0-tlqc) ratio (100% × test/reference) [1, 10]: 529%
- M8 AUC(0-∞) ratio (100% × test/reference) [1, 10]: 182%
- M8 Cmax ratio (100% × test/reference) [1, 10]: 304%
- M8 t1/2 ratio (100% × test/reference) [1, 10]: 110%
- M8 tmax ratio (100% × test/reference) [1, 10]: 130%
- M8 AUC∞/Nelfinavir AUC∞(%) ([2]; 1250 mg nelfinavir single dose, fasting): 8.6%
- M8 AUC∞/Nelfinavir AUC∞(%) ([2]; Kcal/Fat % 500/20%): 8.7%
- M8 AUC∞/Nelfinavir AUC∞(%) ([2]; Kcal/Fat % 500/50%): 11.4%
- mean M8 AUC(0-∞) higher relative to fasting subjects ([2]; test meal containing 20% fat): 3 fold
- mean M8 AUC(0-∞) higher relative to fasting subjects ([2]; test meal containing 50% fat): 6.8 fold
- percentage of M8 relative to nelfinavir ([2]; remained the same with increasing fat intake): around 10%
- M8 concentrations relative to nelfinavir [3]: 15-20%
